How the values were obtained:
Format in all cases: in vivo
[1] = system: velvetleaf (Abutilon theophrasti); assay: Test Example 1: foliage treatment of velvetleaf in pots, herbicidal activity; conditions: emulsifiable concentrate sprayed over the foliage, dosage of 2000 g/ha, 1000 liters per hectare, plants 14 days after seeding, examined after 8 days in greenhouse
[2] = system: velvetleaf (Abutilon theophrasti); assay: Test Example 3: soil surface treatment, velvetleaf seeded in pots, herbicidal activity; conditions: emulsifiable concentrate sprayed over the surface of the soil after seeding, dosage of 2000 g/ha, 1000 liters per hectare, examined after 9 days in greenhouse
[3] = system: barnyardgrass (Echinochloa oryzicola); assay: Test Example 4: flooded paddy field treatment of barnyardgrass in pots, herbicidal activity; conditions: emulsifiable concentrate applied on the water surface of flooded pots, dosage of 1000 g/ha, 50 liters per are, plants 12 days after seeding, examined after 9 days in greenhouse
[4] = system: velvetleaf (Abutilon theophrasti); assay: Test Example 2: foliage treatment of velvetleaf in pots, herbicidal activity; conditions: emulsifiable concentrate sprayed over the foliage, dosage of 8000 g/ha, 1000 liters per hectare, plants 14 days after seeding, examined after 5 days in greenhouse
Protocol: Cylindrical plastic pots of 10 cm in diameter and 10 cm in depth were filled with soil, seeded with velvetleaf (Abutilon theophrasti), and kept in a greenhouse for 14 days. After that, according to Formulation Example 2, compound 2-2001 or 3-2001 was formulated into an emulsifiable concentrate, which was diluted in a prescribed amount with water containing a spreading agent and then uniformly sprayed over the foliage of the plants with a sprayer at a ratio of 1000 liters per hectare. The pots were further kept in the greenhouse for 5 days and examined for herbicidal activity.

Compound | herbicidal activity: growth of velvetleaf [1] | herbicidal activity: germination of velvetleaf [2] | herbicidal activity: growth of barnyardgrass [3] | herbicidal activity: kill of velvetleaf [4]
CCOC(=O)C(C)Nc1ccc2occ(-n3c(=O)cc(C(F)(F)F)n(C)c3=O)c2c1 (centres unmarked) [Compound 1-11] | completely inhibited the growth | completely inhibited the germination | completely inhibited the growth | 
COc1cc2c(-n3c(=O)cc(C(F)(F)F)n(C)c3=O)coc2cc1Cl [Compound 1-84, 3-(6-Chloro-5-methoxybenzo[b]furan-3-yl)-1-methyl-6-(trifluoromethyl)-1,2,3,4-tetrahydropyrimidine-2,4-dione] | completely inhibited the growth | completely inhibited the germination | completely inhibited the growth | 
Cn1c(C(F)(F)F)cc(=O)n(-c2coc3cc([N+](=O)[O-])c(O)cc23)c1=O [Compound 1-82] | completely inhibited the growth | completely inhibited the germination | completely inhibited the growth | 
O=c1cc(C(F)(F)F)ncn1-n1ccc2ccccc21 [Compound 3-2001] |  |  |  | completely killed
CCOC(=O)C(C)Oc1cc2c(-n3c(=O)cc(C(F)(F)F)n(C)c3=O)coc2cc1Cl (centres unmarked) [Compound 1-129, Ethyl 2-({6-chloro-3-[3-methyl-2,6-dioxo-4-(trifluoromethyl)-1,2,3,6-tetrahydropyrimidin-1-yl]benzo[b]furan-5-yl}oxy)propanoate] | completely inhibited the growth | completely inhibited the germination | completely inhibited the growth | 
CSc1cc2c(-n3c(=O)cc(C(F)(F)F)n(C)c3=O)coc2cc1[N+](=O)[O-] [Compound 1-201, 1-Methyl-3-[5-(methylthio)-6-nitrobenzo[b]furan-3-yl]-6-(trifluoromethyl)-1,2,3,4-tetrahydropyrimidine-2,4-dione] | completely inhibited the growth | completely inhibited the germination | completely inhibited the growth | 
Cn1c(C(F)(F)F)cc(=O)n(-c2coc3ccccc23)c1=O [Compound 1-1] | completely inhibited the growth | completely inhibited the germination | completely inhibited the growth | 
Cc1cc(Cl)c2occ(-n3c(=O)cc(C(F)(F)F)n(C)c3=O)c2c1 [Compound 1-358] | completely inhibited the growth | completely inhibited the germination | completely inhibited the growth | 
CN(C)c1ccc2occ(-n3c(=O)cc(C(F)(F)F)n(C)c3=O)c2c1 [Compound 1-9] | completely inhibited the growth | completely inhibited the germination | completely inhibited the growth | 
Cn1c(C(F)(F)F)cc(=O)n(-c2coc3cc(Cl)ccc23)c1=O [Compound 1-861] | completely inhibited the growth | completely inhibited the germination | completely inhibited the growth | 
Cn1c(C(F)(F)F)cc(=O)n(-c2coc3ccc(Cl)cc23)c1=O [Compound 1-4] | completely inhibited the growth | completely inhibited the germination | completely inhibited the growth | 
COc1cc2c(-n3c(=O)cc(C(F)(F)F)n(C)c3=O)coc2cc1[N+](=O)[O-] [Compound 1-86, 3-(5-Methoxy-6-nitrobenzo[b]furan-3-yl)-1-methyl-6-(trifluoromethyl)-1,2,3,4-tetrahydropyrimidine-2,4-dione] | completely inhibited the growth | completely inhibited the germination | completely inhibited the growth | 
CCOC(=O)C(C)Oc1cc2c(-n3c(=O)cc(C(F)(F)F)n(C)c3=O)coc2cc1[N+](=O)[O-] (centres unmarked) [Compound 1-131] | completely inhibited the growth | completely inhibited the germination | completely inhibited the growth | 
Cn1c(C(F)(F)F)cc(=O)n(-c2coc3cc([N+](=O)[O-])c(F)cc23)c1=O [Compound 1-431] | completely inhibited the growth | completely inhibited the germination | completely inhibited the growth | 
O=C1C2=C(CCCC2)C(=O)N1n1ccc2ccccc21 [Compound 2-2001] |  |  |  | completely killed
CCOC(=O)C(C)Sc1cc2c(-n3c(=O)cc(C(F)(F)F)n(C)c3=O)coc2cc1[N+](=O)[O-] (centres unmarked) [Compound 1-246, Ethyl 2-({3-[3-methyl-2,6-dioxo-4-(trifluoromethyl)-1,2,3,6-tetrahydropyrimidin-1-yl]-6-nitrobenzo[b]furan-5-yl}thio)propanoate] | completely inhibited the growth | completely inhibited the germination | completely inhibited the growth | 
Cn1c(C(F)(F)F)cc(=O)n(-c2coc3ccc(Br)cc23)c1=O [Compound 1-75] | completely inhibited the growth | completely inhibited the germination | completely inhibited the growth | 
CNc1ccc2occ(-n3c(=O)cc(C(F)(F)F)n(C)c3=O)c2c1 [Compound 1-8] | completely inhibited the growth | completely inhibited the germination | completely inhibited the growth | 
Cn1c(C(F)(F)F)cc(=O)n(-c2coc3ccc(NS(C)(=O)=O)cc23)c1=O [Compound 1-10] | completely inhibited the growth | completely inhibited the germination | completely inhibited the growth | 
Cn1c(C(F)(F)F)cc(=O)n(-c2csc3ccccc23)c1=O [Compound 1-3] | completely inhibited the growth | completely inhibited the germination | completely inhibited the growth | 
CCOC(=O)C(Cl)Cc1ccc2occ(-n3c(=O)cc(C(F)(F)F)n(C)c3=O)c2c1 (centres unmarked) [Compound 1-407] | completely inhibited the growth | completely inhibited the germination | completely inhibited the growth | 

Source: US6586368B1, “Condensed heterocylic compounds and herbicides containing them” (Sumitomo Chemical Company, Limited, priority 1998, dated 2003)
